BindingDB's records for doi:10.1021/bi00407a006 (Enscp, 1988)

target: T1, Glutamine--fructose-6-phosphate aminotransferase [isomerizing] (Escherichia coli (strain K12), UniProt P17169)
T1 sequence (P17169 whole entry): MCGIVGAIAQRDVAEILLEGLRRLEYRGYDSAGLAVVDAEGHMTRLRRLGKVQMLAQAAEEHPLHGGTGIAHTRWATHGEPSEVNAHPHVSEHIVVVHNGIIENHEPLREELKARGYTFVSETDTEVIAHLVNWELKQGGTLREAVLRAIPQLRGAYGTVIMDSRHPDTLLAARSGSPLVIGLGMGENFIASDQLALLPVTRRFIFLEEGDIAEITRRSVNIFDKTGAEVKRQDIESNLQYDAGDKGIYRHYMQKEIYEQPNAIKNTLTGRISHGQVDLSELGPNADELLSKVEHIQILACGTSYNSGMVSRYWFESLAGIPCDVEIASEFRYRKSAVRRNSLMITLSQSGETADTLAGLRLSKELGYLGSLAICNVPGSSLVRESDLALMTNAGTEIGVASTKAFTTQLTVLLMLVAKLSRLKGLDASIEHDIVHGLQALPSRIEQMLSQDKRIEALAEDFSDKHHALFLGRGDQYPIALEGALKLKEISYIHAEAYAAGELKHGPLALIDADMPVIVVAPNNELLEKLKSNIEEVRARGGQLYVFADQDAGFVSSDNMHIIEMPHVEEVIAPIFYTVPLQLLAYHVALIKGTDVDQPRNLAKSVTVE

Row | Structure (SMILES) | Ki
1 | COC(=O)/C=C/C(=O)NC[C@H](N)C(=O)O [(2S)-2-azaniumyl-3-[[(E)-4-methoxy-4-oxobut-2-enoyl]amino]propanoate] | 0.35 µM
2 | N[C@@H](CNC(=O)/C=C/C(=O)O)C(=O)O [(E)-4-[[(2S)-2-azaniumyl-2-carboxylatoethyl]amino]-4-oxobut-2-enoate] | 55.1 µM
3 | N#[N+][CH-]C(=O)CC[C@H](N)C(=O)NCC(=O)O [(Z,5S)-5-amino-6-(carboxymethylamino)-1-diazonio-6-oxohex-1-en-2-olate] | 1.4 µM
